Measurements: the CheMixHub viscosity set

Experiment: xn = mol fraction of the nth substance listed

CCNc1ccccc1 + COc1ccccc1
viscosity [mPa·s], 101 kPa
Details	293.15 K	298.15 K	303.15 K	308.15 K	313.15 K	318.15 K	323.15 K
x1 = 0.0504	1.109	1.026	0.948	0.881	0.807	0.764	0.709
x1 = 0.1074	1.15	1.059	0.977	0.907	0.83	0.784	0.727
x1 = 0.1541	1.193	1.095	1.009	0.935	0.855	0.805	0.746
x1 = 0.2094	1.234	1.13	1.039	0.961	0.878	0.825	0.763
x1 = 0.2506	1.275	1.164	1.067	0.985	0.9	0.844	0.78
x1 = 0.3006	1.318	1.2	1.098	1.012	0.924	0.864	0.798
x1 = 0.3502	1.364	1.237	1.13	1.04	0.949	0.885	0.816
x1 = 0.4029	1.416	1.279	1.166	1.071	0.976	0.908	0.837
x1 = 0.4504	1.466	1.32	1.201	1.1	1.002	0.931	0.857
x1 = 0.499	1.519	1.363	1.24	1.133	1.031	0.955	0.878
x1 = 0.5504	1.58	1.412	1.281	1.169	1.063	0.981	0.902
x1 = 0.5911	1.64	1.461	1.322	1.204	1.094	1.007	0.924
x1 = 0.6505	1.711	1.517	1.371	1.245	1.131	1.038	0.951
x1 = 0.7027	1.783	1.578	1.421	1.288	1.167	1.069	0.978
x1 = 0.7493	1.853	1.635	1.47	1.331	1.203	1.098	1.004
x1 = 0.7972	1.936	1.699	1.523	1.375	1.242	1.131	1.032
x1 = 0.8509	2.024	1.766	1.578	1.421	1.283	1.164	1.06
x1 = 0.8913	2.103	1.831	1.632	1.466	1.322	1.196	1.087
x1 = 0.9501	2.191	1.9	1.688	1.514	1.363	1.23	1.116

CCNc1ccccc1 + COC(C)(C)C
viscosity [mPa·s], 101 kPa
Details	293.15 K	298.15 K	303.15 K	308.15 K	313.15 K	318.15 K
x1 = 0.0583	0.428	0.412	0.395	0.374	0.351	0.325
x1 = 0.1047	0.465	0.445	0.425	0.401	0.376	0.348
x1 = 0.1493	0.503	0.479	0.455	0.429	0.402	0.371
x1 = 0.2021	0.552	0.523	0.495	0.465	0.434	0.4
x1 = 0.2544	0.605	0.57	0.537	0.503	0.469	0.432
x1 = 0.3064	0.663	0.621	0.583	0.544	0.506	–
x1 = 0.3508	0.718	0.668	0.625	0.582	0.54	–
x1 = 0.4031	0.787	0.728	0.678	0.63	0.584	–
x1 = 0.45	0.855	0.787	0.73	0.677	0.625	–
x1 = 0.5021	0.938	0.858	0.793	0.733	0.675	–
x1 = 0.5506	1.022	0.931	0.857	0.789	0.725	–
x1 = 0.6036	1.123	1.017	0.932	0.856	0.784	–
x1 = 0.6519	1.225	1.103	1.006	0.921	0.843	–
x1 = 0.701	1.337	1.197	1.089	0.993	0.907	–
x1 = 0.7521	1.465	1.304	1.181	1.074	0.979	–
x1 = 0.7985	1.592	1.409	1.271	1.153	1.049	–
x1 = 0.8501	1.745	1.536	1.38	1.247	1.132	–
x1 = 0.9006	1.909	1.67	1.493	1.346	1.218	–
x1 = 0.949	2.081	1.81	1.612	1.448	1.306	–

CC(=O)O + O
Details	viscosity [mPa·s]
293.15 K, 101 kPa, x1 = 0.0322	1.205
293.15 K, 101 kPa, x1 = 0.0731	1.433
293.15 K, 101 kPa, x1 = 0.1134	1.649
293.15 K, 101 kPa, x1 = 0.1667	1.892
293.15 K, 101 kPa, x1 = 0.2308	2.14
293.15 K, 101 kPa, x1 = 0.3102	2.385
293.15 K, 101 kPa, x1 = 0.4112	2.607
293.15 K, 101 kPa, x1 = 0.7286	2.39
293.15 K, 101.33 kPa, x1 = 0.03226	1.237
293.15 K, 101.33 kPa, x1 = 0.1139	1.696
293.15 K, 101.33 kPa, x1 = 0.2308	2.188
293.15 K, 101.33 kPa, x1 = 0.4118	2.686
293.15 K, 101.33 kPa, x1 = 0.5011	2.784
293.15 K, 101.33 kPa, x1 = 0.5454	2.781
293.15 K, 101.33 kPa, x2 = 0.0132	1.455
295.3 K, 101.33 kPa, x1 = 0.0321	1.135
298.15 K, 101 kPa, x1 = 0.0322	1.073
298.15 K, 101 kPa, x1 = 0.0731	1.27
298.15 K, 101 kPa, x1 = 0.1134	1.452
298.15 K, 101 kPa, x1 = 0.1667	1.644
298.15 K, 101 kPa, x1 = 0.2308	1.866
298.15 K, 101 kPa, x1 = 0.3102	2.086
298.15 K, 101 kPa, x1 = 0.4112	2.272
298.15 K, 101 kPa, x1 = 0.5449	2.353
298.15 K, 101 kPa, x1 = 0.7286	2.105
298.15 K, 101.33 kPa, x1 = 0.016	0.988
298.15 K, 101.33 kPa, x1 = 0.034	1.08
298.15 K, 101.33 kPa, x1 = 0.0684	1.232
298.15 K, 101.33 kPa, x1 = 0.07	1.254
298.15 K, 101.33 kPa, x1 = 0.1242	1.437
298.15 K, 101.33 kPa, x1 = 0.1648	1.633
298.15 K, 101.33 kPa, x1 = 0.2268	1.824
298.15 K, 101.33 kPa, x1 = 0.2289	1.867
298.15 K, 101.33 kPa, x1 = 0.2844	1.986
298.15 K, 101.33 kPa, x1 = 0.3218	2.091
298.15 K, 101.33 kPa, x1 = 0.3273	2.103
298.15 K, 101.33 kPa, x1 = 0.4187	2.248
298.15 K, 101.33 kPa, x1 = 0.436	2.333
298.15 K, 101.33 kPa, x1 = 0.4699	2.305
298.15 K, 101.33 kPa, x1 = 0.5177	2.374
298.15 K, 101.33 kPa, x1 = 0.5367	2.254
298.15 K, 101.33 kPa, x1 = 0.737	2.06
298.15 K, 101.33 kPa, x1 = 0.8576	1.689
298.15 K, 101.33 kPa, x1 = 0.9548	1.223
300.27 K, 101.33 kPa, x1 = 0.03428	1.014
303.15 K, 101 kPa, x1 = 0.0322	0.953
303.15 K, 101 kPa, x1 = 0.0731	1.12
303.15 K, 101 kPa, x1 = 0.1134	1.276
303.15 K, 101 kPa, x1 = 0.1667	1.452
303.15 K, 101 kPa, x1 = 0.2308	1.634
303.15 K, 101 kPa, x1 = 0.3102	1.816
303.15 K, 101 kPa, x1 = 0.4112	1.977
303.15 K, 101 kPa, x1 = 0.7286	1.847
303.55 K, 101.33 kPa, x1 = 0.0321	0.956
303.65 K, 101.33 kPa, x1 = 0.03428	0.939
308.15 K, 101 kPa, x1 = 0.0322	0.855
308.15 K, 101 kPa, x1 = 0.0731	1.003
308.15 K, 101 kPa, x1 = 0.1134	1.135
308.15 K, 101 kPa, x1 = 0.1667	1.289
308.15 K, 101 kPa, x1 = 0.2308	1.447
308.15 K, 101 kPa, x1 = 0.3102	1.612
308.15 K, 101 kPa, x1 = 0.4112	1.76
308.15 K, 101 kPa, x1 = 0.5449	1.813
308.15 K, 101 kPa, x1 = 0.7286	1.653
313.15 K, 100 kPa, x1 = 0.1001	0.997
313.15 K, 100 kPa, x1 = 0.2001	1.278
313.15 K, 100 kPa, x1 = 0.2998	1.467
313.15 K, 100 kPa, x1 = 0.3999	1.564
313.15 K, 100 kPa, x1 = 0.4996	1.585
313.15 K, 100 kPa, x1 = 0.5999	1.548
313.15 K, 100 kPa, x1 = 0.7002	1.461
313.15 K, 100 kPa, x1 = 0.7992	1.328
313.15 K, 100 kPa, x1 = 0.9001	1.14
313.15 K, 101 kPa, x1 = 0.0322	0.775
313.15 K, 101 kPa, x1 = 0.0731	0.903
313.15 K, 101 kPa, x1 = 0.1134	1.014
313.15 K, 101 kPa, x1 = 0.1667	1.158
313.15 K, 101 kPa, x1 = 0.2308	1.297
313.15 K, 101 kPa, x1 = 0.3102	1.426
313.15 K, 101 kPa, x1 = 0.4112	1.549
313.15 K, 101 kPa, x1 = 0.5449	1.614
313.15 K, 101 kPa, x1 = 0.7286	1.48
318.15 K, 101 kPa, x1 = 0.0322	0.709
318.15 K, 101 kPa, x1 = 0.0731	0.819
318.15 K, 101 kPa, x1 = 0.1134	0.922
318.15 K, 101 kPa, x1 = 0.1667	1.041
318.15 K, 101 kPa, x1 = 0.2308	1.165
318.15 K, 101 kPa, x1 = 0.3102	1.286
318.15 K, 101 kPa, x1 = 0.4112	1.397
318.15 K, 101 kPa, x1 = 0.5449	1.453
318.15 K, 101 kPa, x1 = 0.7286	1.34
323.15 K, 101 kPa, x1 = 0.0322	0.644
323.15 K, 101 kPa, x1 = 0.0731	0.742
323.15 K, 101 kPa, x1 = 0.1134	0.842
323.15 K, 101 kPa, x1 = 0.1667	0.943
323.15 K, 101 kPa, x1 = 0.2308	1.052
323.15 K, 101 kPa, x1 = 0.3102	1.166
323.15 K, 101 kPa, x1 = 0.4112	1.265
323.15 K, 101 kPa, x1 = 0.5449	1.316
323.15 K, 101 kPa, x1 = 0.7286	1.235
